The values below come from patent US20220009894A1, “1,2,3,4-TETRAHYDROQUINOXALINE DERIVATIVE, PREPARATION METHOD THEREFOR AND APPLICATION THEREOF” (Abbisko Therapeutics Co., Ltd., priority 2019, published 2022).

Molecules are shown by their SMILES.

The target in assay [1] is T1, RORγt (Homo sapiens, UniProt P51449).
T1 construct: The plasmid of pFN26A-RORγt-LBD and pG14.35 (Promega, Cat. No. E1370) were co-transfected into HEK 293 cells; expressed in transfected cells; host or cells: HEK 293 cells (Cat. No. GNHu18)
T1 sequence (P51449 269-508 limits assumed): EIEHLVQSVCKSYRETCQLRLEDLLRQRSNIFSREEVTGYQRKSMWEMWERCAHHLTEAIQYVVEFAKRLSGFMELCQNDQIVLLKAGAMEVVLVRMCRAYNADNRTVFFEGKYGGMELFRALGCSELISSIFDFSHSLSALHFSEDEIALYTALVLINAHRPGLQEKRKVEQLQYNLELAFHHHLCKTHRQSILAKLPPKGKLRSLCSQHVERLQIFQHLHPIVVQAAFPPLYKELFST
As to the kind of experiment: RORγt cellular reporter gene detection assay.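 On Cellular Reporter Assay Amax: Ursolic Acid added as 5 µL of 20 µM medium per well.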 It is filed as cell-based. To be noted: 24 hrs; for EC50: HEK 293 cells co-transfected with pFN26A-RORγt-LBD and pG14.35, in presence of antagonist Ursolic acid, top concentration 50 μM; for Cellular Reporter Assay Amax: upper activation limit, HEK 293 cells, in presence of antagonist Ursolic acid. The essentials:
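Compounds, titrated 4-fold from a 50 μM top concentration, were added with Ursolic acid to HEK293 cells carrying a RORγt-LBD plasmid and a reporter plasmid. After 24 h at 37° C, dual firefly/Renilla luciferase readout; four-parameter curves gave EC50 and maximal activation (Amax).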
A general note: Reporter assays use an easily measured gene product as a stand-in for the process of interest.

The target in assay [2] is T2, RORγt-LBD (Homo sapiens, UniProt P51449).
T2 sequence (P51449 269-508 limits assumed): T1 sequence (P51449 269-508 limits assumed)
As to the kind of experiment: Time-resolved fluorescence resonance energy-transfer assay (TR-FRET), co-activator peptide recruitment. Type of assay: biochemical. More on the design: TR-FRET Biochemical Amax: unit not given here. To be noted: for EC50: His-RORγt-LBD 30 nM, SRC peptide 500 nM, agonistic activity, averages of one or more measurements, read-out: TR-FRET Biochemical EC50/; for TR-FRET Biochemical Amax: upper activation limit, His-RORγt-LBD, SRC peptide. The essentials:
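This agonist-mode TR-FRET used 30 nM His-tagged RORγt-LBD, 500 nM biotinylated SRC peptide, 0.25 nM Eu-anti-His and 5 nM APC-streptavidin in pH 7.0 Tris/KCl buffer with DTT and Triton. A 7-concentration, 5-fold compound series was incubated at 4 °C overnight plus 1 h at room temperature, and the 665/615 nm signal was read.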

In the case of `C/C(=C\c1ccc2c(c1)N(S(=O)(=O)c1cccc(C(F)(F)F)c1)C[C@@H]1CN(CC(C)(C)O)CCN21)c1c(F)cccc1Cl` [Example 82, (S,E)-1-(8-(2-(2-chloro-6-fluorophenyl)prop-1-en-1-yl)-6-((3-(trifluoromethyl)phenyl)sulfonyl)-1,2,4,4a,5,6-hexahydro-3H-pyrazino[1,2-a]quinoxalin-3-yl)-2-methylpropan-2-ol], in assay [1], the EC50 was determined as 394 nM and the “Cellular Reporter Assay Amax” value was found to be 4.5. Besides, in assay [2], the EC50 was found to be 28.1 nM and the “TR-FRET Biochemical Amax” value came to 1.09.

Turning to `CS(=O)(=O)COC1CCN2c3ccc(-c4cc(F)cc(OC(F)F)c4)cc3N(S(=O)(=O)c3cccc(C(F)(F)F)c3)C[C@@H]2C1` (stereo partly drawn) [Example 110, (6aS)-3-(3-(difluoromethoxy)-5-fluorophenyl)-8-((methylsulfonyl)methoxy)-5-((3-(trifluoromethyl)phenyl)sulfonyl)-6,6a,7,8,9,10-hexahydro-5H-pyrido[1,2-a]quinoxaline], in assay [1], the EC50 is 214 nM and the “Cellular Reporter Assay Amax” value is on record as 2.8. For the same compound, in assay [2], the EC50 came out at 12.1 nM and the “TR-FRET Biochemical Amax” value was 0.76.

On to `NC(=O)C1(N2CCN3c4ccc(/C=C/c5c(Cl)cccc5C(F)(F)F)cc4N(S(=O)(=O)c4cccc(C(F)(F)F)c4)C[C@@H]3C2)CCC1` [Example 81, (S,E)-1-(8-(2-chloro-6-(trifluoro-methyl)styryl)-6-((3-(trifluoro-methyl)phenyl)sulfonyl)-1,2,4,4a,5,6-hexa-hydro-3H-pyrazino[1,2-a]quinoxalin-3-yl) cyclobutane-1-carboxamide], for which, in assay [1], the EC50 was 355 nM and the “Cellular Reporter Assay Amax” value was determined as 4.0. In assay [2], the EC50 came to 21.2 nM and the “TR-FRET Biochemical Amax” value is reported as 1.19.

For `COC(=O)C(C)N1CCN2c3ccc(/C=C(\C)c4c(F)cccc4Cl)cc3N(S(=O)(=O)c3cccc(C(F)(F)F)c3)C[C@@H]2C1` (stereo partly drawn) [Example 23, methyl 2-((S)-8-((E)-2-(2-chloro-6-fluorophenyl)prop-1-en-1-yl)-6-((3-(trifluoromethyl)phenyl)sulfonyl)-1,2,4,4a,5,6-hexahydro-3H-pyrazino[1,2-a]quinoxalin-3-yl)propanoate], in assay [1], the EC50 amounted to 1080 nM and the “Cellular Reporter Assay Amax” value turned out to be 3.8. Further, in assay [2], the EC50 was found to be 17.2 nM and the “TR-FRET Biochemical Amax” value was 0.79.

Take `C/C(=C\c1ccc2c(c1)N(S(=O)(=O)c1cccc(C(F)(F)F)c1)C[C@@H]1CNCCN21)c1c(F)cccc1Cl` [Example 10, (S,E)-8-(2-(2-chloro-6-fluorophenyl)prop-1-en-1-yl)-6-((3-(trifluoromethyl)phenyl)sulfonyl)-2,3,4,4a,5,6-hexahydro-1H-pyrazino[1,2-a]quinoxaline]: in assay [1], the EC50 was determined as 578 nM and the “Cellular Reporter Assay Amax” value came out at 2.8. Besides, in assay [2], the EC50 stood at 13.6 nM and the “TR-FRET Biochemical Amax” value is 0.81.

Regarding `C[C@]1(OCCC(=O)O)CCN2c3ccc(-c4cc(F)cc(OC(F)F)c4)cc3N(S(=O)(=O)c3cccc(C(F)(F)F)c3)C[C@@H]2C1` [Example 114, 3-(((6aS,8S)-3-(3-(difluoro-methoxy)-5-fluorophenyl)-8-methyl-5-((3-(trifluorometh-yl)phenyl)sulfonyl)-6,6a,7,8,9,10-hexahydro-5H-py-rido[1,2-a]quinoxalin-8-yl)oxy)propanoic acid], in assay [1], the EC50 worked out at 969 nM and the “Cellular Reporter Assay Amax” value is 5.3. In assay [2], the EC50 came to 113 nM and the “TR-FRET Biochemical Amax” value is 0.51.

As to `O=C(O)CN1CCN2c3ccc(-c4cc(F)cc(OC(F)F)c4)cc3N(S(=O)(=O)c3cc(C(F)(F)F)cnc3OCCO)C[C@@H]2C1` [Example 91, (S)-2-(8-(3-(difluoromethoxy)-5-fluorophenyl)-6-((2-(2-hydroxyethoxy)-5-(trifluoromethyl)pyridin-3-yl)sulfonyl)-1,2,4,4a,5,6-hexahydro-3H-pyrazino[1,2-a]quinoxalin-3-yl)acetic acid], in assay [1], the EC50 is 3760 nM and the “Cellular Reporter Assay Amax” value worked out at 4.1. Besides, in assay [2], the EC50 was determined as 34.1 nM and the “TR-FRET Biochemical Amax” value is given as 0.47.

Take `CN1c2ccc(C3=CC(C)(C)OC(C)(C)C3)cc2N(S(=O)(=O)c2cccc(C(F)(F)F)c2)C[C@@H]1CCC(=O)O` [Example 118, (S)-3-(1-methyl-6-(2,2,6,6-tetramethyl-3,6-dihydro-2H-pyran-4-yl)-4-((3-(trifluoromethyl)phenyl)sulfonyl)-1,2,3,4-tetrahydroquinoxalin-2-yl)propanoic acid]: in assay [1], the EC50 stood at 223 nM and the “Cellular Reporter Assay Amax” value came out at 1.0. Besides, in assay [2], the EC50 stood at 204 nM and the “TR-FRET Biochemical Amax” value was found to be 0.36.

As for `CS(=O)(=O)N1CCN2c3ccc(/C=C/c4c(Cl)cccc4C(F)(F)F)cc3N(S(=O)(=O)c3cccc(C(F)(F)F)c3)C[C@@H]2C1` [Example 17, (S,E)-8-(2-chloro-6-(tri-fluoromethyl)styryl)-3-(methylsulfonyl)-6-((3-(trifluoromethyl)phenyl)sulfonyl)-2,3,4,4a,5,6-hexahydro-1H-pyrazino [1,2-a]quinoxaline], in assay [1], the EC50 is 603 nM and the “Cellular Reporter Assay Amax” value is given as 4.2. Moreover, in assay [2], the EC50 worked out at 29.6 nM and the “TR-FRET Biochemical Amax” value is given as 0.82.

In the case of `CC(C(=O)O)N1CCN2c3ccc(C4=CC(C)(C)OC(C)(C)C4)cc3N(S(=O)(=O)c3cccc(C(F)(F)F)c3)C[C@@H]2C1` (stereo partly drawn) [Example 27, 2-((S)-8-(2,2,6,6-tetrameth-yl-3,6-dihydro-2H-pyran-4-yl)-6-((3-(trifluorometh-yl)phenyl)sulfonyl)-1,2,4,4a,5,6-hexahydro-3H-pyrazino[1,2-a]quinoxalin-3-yl)propanoic acid], in assay [1], the EC50 is 228 nM and the “Cellular Reporter Assay Amax” value is given as 3.9. Besides, in assay [2], the EC50 worked out at 5.25 nM and the “TR-FRET Biochemical Amax” value worked out at 0.61.

As for `O=S(=O)(c1cccc(C(F)(F)F)c1)N1C[C@@H]2CCCN2c2ccc(-c3cc(F)cc(OC(F)F)c3)cc21` [Example 4, (S)-7-(3-(difluoromethoxy)-5-fluorophenyl)-5-((3-(trifluoromethyl)phenyl)sulfonyl)-1,2,3,3a,4,5-hexa-hydropyrrolo[1,2-a]qui-noxaline], in assay [1], the EC50 was 3550 nM and the “Cellular Reporter Assay Amax” value turned out to be 4.9. Also, in assay [2], the EC50 came to 28.4 nM and the “TR-FRET Biochemical Amax” value was found to be 1.25.

As to `CC1(C)C=C(c2ccc3c(c2)N(S(=O)(=O)c2cccc(C(F)(F)F)c2)C[C@@H]2CN(C[C@H](O)CO)CCN32)CC(C)(C)O1` [Example 42, (S)-3-((S)-8-(2,2,6,6-tetrameth-yl-3,6-dihydro-2H-pyran-4-yl)-6-((3-(trifluoromethyl)phenyl)sulfonyl)-1,2,4,4a,5,6-hexa-hydro-3H-pyrazino[1,2-a]qui-noxalin-3-yl)propane-1,2-diol], in assay [1], the EC50 is 123 nM and the “Cellular Reporter Assay Amax” value came to 1.4. Further, in assay [2], the EC50 was found to be 0.84 nM and the “TR-FRET Biochemical Amax” value amounted to 1.28.
